Where a SMILES comes first, the peptide text is derived from it. [ ]: non-standard residue; d: D form. pT = C[C@@H](OP(=O)(O)O)[C@H](N)C(=O)O; 2Nal = N[C@@H](Cc1ccc2ccccc2c1)C(=O)O; Bta = N[C@@H](Cc1csc2ccccc12)C(=O)O; Pip = O=C(O)[C@@H]1CCCCN1
Key:
[1] = target: Pin1 and DAPK1 (Homo sapiens, UniProt Q13526); assay: association between Pin1 and DAPK1 (competition); format: binding; conditions: dose-dependent manner, trans being more potent
[2] = system: Pin1 K63A, S67E, R68/69A, H59A or S71E; assay: trans-RA binding to Pin1 point mutants; conditions: point mutations K63A
Description: (§1) We used the FP-HTS with a 5 nM probe and 200 nM Pin1 to conduct a pilot screen on a selected set of chemical libraries. We obtained the resulting potential positive hits and grouped them into 3 classes according to the Z-score, which is folds of standard deviation below the mean. […] 1) cis-RA is not listed in promiscuous inhibitor databases 2) all-trans retinoic acid (trans-RA), the pairing compound of cis-RA, is currently used as oral prescription for patients with acute promyelocytic leukemia […]; 3) both cis-RA and trans-RAs are used as a medication in the phase II/III clinical trial for breast cancer, and more because of its ability to kill rapidly dividing cells; and 4) although it has been reported that RAs target on retinoic acid receptor (RAR), the exact mechanism of the anticancer action is unknown. As a result, we examined whether the anti-cancer effect of RAs depends on RAR in the breast cancer cells. […] In the PPIase assay, Pin1 activity was blocked by either cis- or trans-RA in a dose-dependent manner (FIG. 4).

[3] = system: MCF10A; assay: cell viability; format: cell-based; conditions: normal cell line MCF10A
Text: (§2) This discrepancy between cell lines was correlated with the RAs' ability to suppress Pin1 expression. Pin1 level was decreased by treatment of RAs in drugs-responsive SKBR3 and T47D, but not in drugs-irresponsive normal cells, MCF10A (FIG. 7B), in which Pin1 target protein, cyclin D1, was served as biomarkers of in vivo Pin1 activity. […] To further confirm this premise, wild-type mouse embryonic fibroblast (WT MEF) and Pin1 knockout MEF (Pin1 KO MEF) were used to test trans-RA-mediated cell viability (FIGS. 9A-C). […] In addition, Pin1 KO MEF stably expressing WT Pin1, but not W34/K63A Pin1 mutant, enabled cells to re-sensitize trans-RA.

[4] = system: T47D; assay: cell viability; format: cell-based
Text: as §2

[5] = system: WT MEF and Pin1 KO MEF; assay: trans-RA-mediated cell viability in MEF; format: cell-based, mouse
Text: as §2

[6] = system: SKBR3; assay: cell viability; format: cell-based, human
Text: as §2

[7] = target: T1, Pin1 (Homo sapiens, UniProt Q13526); assay: Pin1 inhibition by retinoids in a cell culture model; format: cell-based
T1 construct: We performed FP-HTS in a 384-well plate format with full length Pin1
T1 sequence (Q13526 whole entry): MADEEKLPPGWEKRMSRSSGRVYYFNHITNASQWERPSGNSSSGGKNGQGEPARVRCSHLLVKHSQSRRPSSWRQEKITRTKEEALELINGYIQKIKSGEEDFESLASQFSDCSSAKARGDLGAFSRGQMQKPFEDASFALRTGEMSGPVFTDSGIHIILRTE
Description: As trans-RA is selected as the current lead compound, it is important to identify the essential moiety of RAs on Pin1 interaction for further lead optimization. Many commercially available retinoids were tested for Pin1 inhibition. […] Other RA compounds that are metabolized to contain an end carboxylic group are also likely to be useful in treating proliferative disorders (FIG. 10D). In addition, compounds that modulate the retinoic acid receptor (FIGS. 10D and 11A and compounds listed in Table 1) are also likely to be useful in treating proliferative disorders.

[8] = target: T1, Pin1; assay: single-step fluorescence polarization-based displacement assay (FP-HTS); format: binding
Description: We used the FP-HTS with a 5 nM probe and 200 nM Pin1 to conduct a pilot screen on a selected set of chemical libraries.

[9] = target: T1, Pin1; assay: PPIase assay; format: biochemical; conditions: dose-dependent manner
Description: as §1

[10] = system: breast cancer cells; assay: cis-RA-mediated cell death with RARα knockdown; format: cell-based

Sequence of Pin1 and DAPK1 (Q13526 whole entry): as above

SMILES | association between Pin1 and DAPK1 [1] | IC50 (cell viability) [4] | IC50 (cell viability) [6] | Pin1 inhibition [7] | Pin1 activity [9] | cell viability [3] | also measured
C[C@@H](OP(=O)(O)O)[C@H](NC(=O)[C@@H](N)Cc1csc2ccccc12)C(=O)N1CCCC[C@H]1C(=O)N[C@@H](Cc1ccc2ccccc2c1)C(=O)O [pTide, Bth-L-phos.Thr-Pip-Nal] (H-[Bta][pT][Pip][2Nal]-OH; N-terminus and C-terminus assumed) | – | – | – | – | – | – | displacement of HF488 probe from Pin1 [8]: displaced
COc1cc(C)c(/C=C/C(C)=C/C=C/C(C)=C/C(=O)O)c(C)c1C [acitretin] | – | – | – | maintained Pin1 inhibition | – | – | –
CCCCCCCCc1ccc(-c2ccc(C(=O)O)cc2)cc1 [AC-55649] | – | – | – | maintained Pin1 inhibition | – | – | –

The next lines start with results.

association between Pin1 and DAPK1 [1] | IC50 (cell viability) [4] | IC50 (cell viability) [6] | Pin1 inhibition [7] | Pin1 activity [9] | SMILES | cell viability [3] | also measured
blocked | nano-molar range | nano-molar range | maintained Pin1 inhibition | blocked | CC1=C(/C=C/C(C)=C/C=C/C(C)=C/C(=O)O)C(C)(C)CCC1 [trans-RA, (2E,4E,6E,8E)-3,7-dimethyl-9-(2,6,6-trimethylcyclohexen-1-yl)nona-2,4,6,8-tetraenoic acid] | remained unaffected | trans-RA binding to Pin1 [2]: completely or significantly abolished; cell viability ([5]; Pin1 KO MEF compared with WT MEF): more resistant; cell viability ([5]; Pin1 KO MEF stably expressing WT Pin1): re-sensitize; Pin1 inhibition in the FP assay ([8]; compared with cis-RA): more prominent Pin1 inhibition than cis-RA
blocked | nano-molar range | nano-molar range | maintained Pin1 inhibition | blocked | CC1=C(/C=C/C(C)=C/C=C/C(C)=C\C(=O)O)C(C)(C)CCC1 [cis-RA, (2Z,4E,6E,8E)-3,7-dimethyl-9-(2,6,6-trimethylcyclohexen-1-yl)nona-2,4,6,8-tetraenoic acid] | remained unaffected | rescue of cis-RA-mediated cell death [10]: only partially rescue; pilot screen hit class according to Z-score ([8]; 5 nM probe and 200 nM Pin1): top strong chemical; Pin1 inhibition in the FP assay ([8]; long-term incubation with Pin1): eventually catch up with trans-RA
